# Measured values as given in PMC12190659, “A Near-Infrared Fluorescent Probe for Specific Imaging of Lymph Node Metastases in Ovarian Cancer via Active Targeting of the Gonadotropin-Releasing Hormone Receptor” (Biomolecules, 2025).
# “Also recorded” adds a separate entry of the source.
# Tests used:
# [1] = test system: lymphatic metastases in early-stage ovarian cancer; design: method as in PMID 38006759; conditions: compared with systematic lymphadenectomy; cited from earlier work
# Text: Lymph node metastases are commonly observed in advanced ovarian cancer and are associated with a poor survival rate. Systematic lymphadenectomy seems necessary to achieve complete tumor reduction. […] In a prospectively randomized, controlled trial of lymphadenectomy in patients with primary ovarian cancer (FIGO stage IIB through IV) with macroscopically complete resection and clinically negative lymph nodes (LION trial), systematic pelvic and p ...
# [2] = molecular target: T1, GnRHR (Homo sapiens, UniProt P30968); assay: Confocal fluorescence microscopy of frozen tissue sections; type: in vivo, BALB/c nude mice
# T1 construct: mouse model bearing subcutaneous A2780 (GnRHR-positive) ovarian cancer; endogenous in cells; host or cells: A2780 and ES-2 human ovarian cancer cells grown as xenografts or lymph node metastases in BALB/c nude mice; frozen tissue sections
# T1 sequence (P30968 1-328): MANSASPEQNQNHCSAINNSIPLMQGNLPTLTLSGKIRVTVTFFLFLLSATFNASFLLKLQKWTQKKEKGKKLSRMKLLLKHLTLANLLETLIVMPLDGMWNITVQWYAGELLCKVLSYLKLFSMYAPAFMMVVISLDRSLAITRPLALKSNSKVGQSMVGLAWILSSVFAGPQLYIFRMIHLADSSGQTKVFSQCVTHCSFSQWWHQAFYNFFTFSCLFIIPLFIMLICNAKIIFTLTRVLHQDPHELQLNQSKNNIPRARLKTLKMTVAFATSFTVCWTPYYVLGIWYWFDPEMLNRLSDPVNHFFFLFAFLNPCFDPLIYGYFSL
# Text: To examine the binding of probes to ovarian cancer tissues, tumors, lymph nodes and skeletal muscle were obtained from sacrificed mice and then embedded in frozen section embedding medium. The frozen tissues were sectioned, fixed and mounted. Nuclei were labeled with DAPI. Fluorescence images were captured via confocal fluorescence microscopy (TCS SP5, Leica, Wetzlar, Germany).
# [3] = UV-visible absorption and fluorescence emission spectra; type: physicochemical; conditions: DMSO solution
# Protocol: The probe GnRHa-PEG-Rh760 was synthesized as shown in the scheme in Figure 1A. The NIR fluorophore Rh760 and its derivatives Rh760-PAZ and Rh760-GA were synthesized as previously reported. All probes were synthesized by Guoping Pharmaceutical (Hefei, China). Briefly, the sequence of the GnRHa peptide (D-2-Nal-D-4-Cl-Phe-D-3-Pal-Ser-Tyr-D-Cit-Leu-Arg-Pro-D-Ala-NH2) was prepared via the standard Fmoc solid-phase peptide synthesis method. After peptide chain coupling, piperidine was added, and the mixture was allowed to react for 20 min to remove Fmoc. Then, Fmoc-PEG2000-COOH and Rh760 were added in sequence and allowed to react until the resin test was colorless. The resin was washed with methanol and then shaken for 2 h with cutting fluid. The resulting reaction mixture was precipitated with ice-cold ether, yielding a blue–green solid. PEG-Rh760 without GnRHa peptide modification was synthesized as the control. The final products were evaluated by mass spectrometry (MS). The UV–visible absorption spectra were measured with a LAMBDA 750 spectrometer (PerkinElmer, Waltham, USA), and the fluorescence emission spectra were measured with a QuantaMaster 40 fluorospectrometer in DMSO solution.
# [4] = test system: subcutaneous A2780 (GnRHR-positive) ovarian cancer; assay: In vivo NIR fluorescence imaging, subcutaneous xenograft model; design: species or system BALB/c nude mice; conditions: 2.0 mg/kg, tail vein, n = 3
# Protocol: (§1) Mouse models with subcutaneous xenografts: A total of 5 × 10^6 A2780 cells were subcutaneously injected into the flanks of the mice. The tumors were allowed to grow until their diameter reached approximately 5 mm before treatment.
# (§2) The tumor-bearing mice were injected with GnRHa-PEG-Rh760 at a dose of 2.0 mg/kg body weight (n = 3). PEG-Rh760 was used as a non-targeted control probe. The probes were formulated using phosphate buffered saline (PBS) solutions with a pH of 7.4. For mice with subcutaneous xenografts and lymph node metastasis, the probe was administered via tail vein injection. For mice with peritoneal metastasis, the probe was injected intraperitoneally into the lower right abdominal region. In vivo NIR fluorescence imaging (Ex/Em = 740 nm/790 nm) was performed at different time points post-injection via the IVIS Lumina K Imaging system (PerkinElmer, Waltham, USA). Moreover, tumors, lymph nodes, and major organs were immediately dissected from sacrificed mice and imaged under NIR fluorescence. The fluorescence signals were quantified as the average radiant efficiency ([p/s/cm^2/sr]/[μW/cm^2]) via Living Image software (version 4.5, PerkinElmer, Waltham, USA).
# [5] = test system: lymph node metastases of ES-2-luciferase ovarian cancer; assay: In vivo and ex vivo NIR fluorescence imaging, lymph node metastasis model; design: species or system BALB/c nude mice; conditions: 2.0 mg/kg, tail vein
# Protocol: Mouse models with lymph node metastasis: A total of 2 × 10^6 ES-2-luciferase cells were injected into the unilateral footpads of the mice. The lymph node metastases were monitored via bioluminescence imaging. Spontaneous metastases to popliteal (PO) and inguinal (IN) lymph nodes as well as occasional metastases to iliac (IL) and sciatic (SC) lymph nodes were observed after 2–3 weeks of primary tumor growth. The lymph node tissues were confirmed by histological examination and immunohistochemical staining for CK7.
# as §2
# To verify the specificity of the NIR fluorescence imaging of GnRHa-PEG-Rh760, bioluminescence imaging of A2780-luciferase and ES-2-luciferase tumor-bearing mice was performed via the IVIS Lumina K Imaging system (PerkinElmer, Waltham, USA). The mice were injected with 150 mg/kg body weight D-luciferin (YEASEN Biotech, Shanghai, China) and imaged at 15 min post-injection. Moreover, tumors, lymph nodes, and major organs were immediately dissected from sacrificed mice and imaged. Bioluminescence signals were quantified as the total flux (p/s) via Living Image software (version 4.5, PerkinElmer, Waltham, USA).
# [6] = test system: peritoneal metastatic A2780-luciferase ovarian cancer; assay: In vivo and ex vivo NIR fluorescence imaging, peritoneal metastasis model; design: species or system BALB/c nude mice; conditions: 2.0 mg/kg, intraperitoneal injection, n = 3
# Protocol: Mouse models with peritoneal metastasis: A total of 1 × 10^7 A2780-luciferase cells were injected into the abdominal cavities of the mice. The tumors were allowed to grow for 2 weeks and monitored via bioluminescence imaging using the IVIS Lumina K Imaging system (PerkinElmer, Waltham, USA).
# as §2, with “For mice with peritoneal metastasis, the probe was injected intraperitoneally into the lower right abdominal region.” left out
# To verify the specificity of the NIR fluorescence imaging of GnRHa-PEG-Rh760, bioluminescence imaging of A2780-luciferase and ES-2-luciferase tumor-bearing mice was performed via the IVIS Lumina K Imaging system (PerkinElmer, Waltham, USA). […]
# [7] = test system: subcutaneous A2780 ovarian cancer; assay: Ex vivo fluorescence biodistribution, subcutaneous xenograft model; type: in vivo, BALB/c nude mice
# Protocol: as §1, §2
# Figure S1 Mass spectra of GnRHa-PEG-Rh760 (A) and PEG-Rh760 (B).
# Figure S2 Biodistribution of GnRHa-PEG-Rh760 in mice bearing subcutaneous A2780 ovarian tumors. The mice were injected with GnRHa-PEG-Rh760 via the tail vein and monitored for 120 h. The fluorescence intensities of the ex vivo tumors and organs were measured (n=3). […]
# [8] = In vivo safety evaluation; design: species or system mice; conditions: 2.0 mg/kg, tail vein, n = 3
# Protocol: The mice were injected with GnRHa-PEG-Rh760 at a dose of 2.0 mg/kg body weight via the tail vein (n = 3). PEG-Rh760 and vehicle were used as controls. The body weights of the mice were continuously monitored. The mice were sacrificed after 6 days. Routine blood tests were conducted to assess red blood cells (RBCs), white blood cells (WBCs), and platelets (PLTs). Blood biochemistry tests were conducted to assess alanine transaminase (ALT), aspartate transaminase (AST), blood urea nitrogen (BUN), and creatinine (CREA) levels. Tissue sections from organs, including the heart, lung, liver, spleen, kidney, and muscle, were stained with hematoxylin and eosin (H&E) for histopathological analysis.
# [9] = test system: folate receptor alpha; conditions: cited from earlier work
# Text: Real-time guidance provided by intraoperative fluorescence imaging helps improve the resection rate of tumors. Over the past two decades, researchers have attempted to develop tumor-specific fluorophores for intraoperatively detecting ovarian cancer. Pafolacianine (OTL38), a fluorescent tracer that targets folate receptor alpha, is the first FDA-approved agent for fluorescence-guided ovarian cancer surgery. In a phase III study (NCT03180307), additional cancer lesions were identified in 33% of patients with known or suspected ovarian cancer who were scheduled to undergo cytored ...
molecule,measurement,setting,value
CC1(C)C(/C=C/C=C/C=C/C=C2\N(CCCCS(=O)(=O)O)c3ccc4ccccc4c3C2(C)C)=[N+](CCCCS(=O)(=O)[O-])c2ccc3ccccc3c21 [indocyanine green],detection rate of sentinel lymph node mapping,[1],low detection rate
"D-2-Nal-D-4-Cl-Phe-D-3-Pal-Ser-Tyr-D-Cit-Leu-Arg-Pro-D-Ala-NH2 [GnRHa-PEG-Rh760, GnRHR-targeted NIR fluorescent probe: GnRH analog peptide conjugated with Rh760 fluorophore and polyethylene glycol (PEG)]",binding in tumor sections (versus skeletal muscle),[2]; frozen sections from subcutaneous A2780 tumor-bearing mice injected with the probe,specific binding
same,binding in metastatic lymph node sections,[2]; frozen sections of lymph nodes from ES-2-luciferase model,specific binding
same,maximum absorption peak,[3],780 nm
same,maximum emission peak,[3],805 nm
same,NIR fluorescence in subcutaneous tumors,[4]; Ex/Em 740/790 nm,High fluorescence intensity
same,duration of stronger fluorescence signals in tumors post-injection,[4],up to 72 h
same,NIR fluorescence in metastatic lymph nodes,[5]; n = 3,well identified and detected by NIR fluorescence
same,NIR fluorescence in normal lymph nodes,[5]; n = 3,no NIR fluorescence signals were detected
same,average fluorescence intensity in metastatic versus normal lymph nodes,"[5]; n = 3, p < 0.05",significantly greater
same,NIR fluorescence signals in peritoneal metastases,[6],high fluorescent signals
same,NIR fluorescence in normal ovarian tissues,[7]; ex vivo,weak NIR fluorescence
same,biodistribution (organs of accumulation),"[7]; ex vivo fluorescence of tumors and organs, 2.0 mg/kg, tail vein, monitored for 120 h, n = 3","mainly accumulated in the tumor and liver tissues; also recorded: predominant accumulation in the tumor and liver, followed by the kidneys"
same,clearance of the probe,"[7]; ex vivo fluorescence of tumors and organs, 2.0 mg/kg, tail vein, n = 3",gradually cleared at 96 h post-injection
same,tumor-to-background (skeletal muscle) fluorescence ratio,"[7]; ex vivo, 2.0 mg/kg, tail vein, n = 3",high ratio of tumor-to-background
same,body weight change versus control group,[8]; 6 days,No significant body weight loss
same,"hematologic analysis: RBC, WBC, PLT, ALT, AST, BUN, CREA levels",[8]; after 6 days,no significant changes
same,"histopathology (H&E) of heart, lung, liver, spleen, kidney, muscle",[8]; after 6 days,No notable tissue injury
"CC1(C)C(/C=C/C2=C(Oc3ccc(C[C@H](NC(=O)c4ccc(NCc5cnc6nc(N)[nH]c(=O)c6n5)cc4)C(=O)[O-])cc3)C(=C/C=C3\N(CCCCS(=O)(=O)[O-])c4ccc(S(=O)(=O)[O-])cc4C3(C)C)/CCC2)=[N+](CCCCS(=O)(=O)[O-])c2ccc(S(=O)(=O)[O-])cc21.[H+].[H+].[H+].[H+] [pafolacianine, Pafolacianine]",false-positive lymph nodes,[9]; phase I to III studies,false-positive lymph nodes were also observed
same,patients in whom additional cancer lesions were identified,"[9]; phase III study NCT03180307, versus white light assessment and palpation",33%
